Consider 16 compounds from US12522594B2, “2-heteroaryl-3-oxo-2,3-dihydropyridazine-4-carboxamides for the treatment of cancer” (Deutsches Krebsforschungszentrum, priority 2017, dated 2026).

Holding throughout (format): cell-based
For assay [1], the target named is T1, AHR (Homo sapiens, UniProt P35869).
T1 sequence (P35869 11-848): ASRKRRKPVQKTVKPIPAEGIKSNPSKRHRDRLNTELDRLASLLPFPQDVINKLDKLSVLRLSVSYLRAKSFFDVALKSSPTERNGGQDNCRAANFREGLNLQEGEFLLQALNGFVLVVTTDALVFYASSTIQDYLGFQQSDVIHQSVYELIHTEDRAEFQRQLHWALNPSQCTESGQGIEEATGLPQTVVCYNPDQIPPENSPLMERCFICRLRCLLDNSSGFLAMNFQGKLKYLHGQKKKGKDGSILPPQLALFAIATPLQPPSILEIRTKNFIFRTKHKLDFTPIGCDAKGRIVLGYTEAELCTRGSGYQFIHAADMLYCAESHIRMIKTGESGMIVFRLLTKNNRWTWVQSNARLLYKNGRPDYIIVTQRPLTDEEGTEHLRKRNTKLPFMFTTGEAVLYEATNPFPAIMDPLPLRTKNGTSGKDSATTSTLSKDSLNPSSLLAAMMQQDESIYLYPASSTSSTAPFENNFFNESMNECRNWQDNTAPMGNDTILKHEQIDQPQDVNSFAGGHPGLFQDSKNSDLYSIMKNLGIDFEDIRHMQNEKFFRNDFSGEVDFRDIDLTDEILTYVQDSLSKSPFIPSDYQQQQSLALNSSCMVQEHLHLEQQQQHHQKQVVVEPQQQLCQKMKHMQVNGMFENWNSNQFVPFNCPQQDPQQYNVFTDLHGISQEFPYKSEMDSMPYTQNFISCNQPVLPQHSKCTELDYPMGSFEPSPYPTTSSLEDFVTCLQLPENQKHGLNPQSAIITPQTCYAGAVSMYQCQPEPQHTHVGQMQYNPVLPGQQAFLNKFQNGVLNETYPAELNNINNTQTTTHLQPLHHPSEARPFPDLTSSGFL
Description: In vitro assay 3: AHR-regulated CYP1A1 expression in human cell line (U937, qPCR, KA stimulation). The following applies: U937 cells, 200 uM KA, 6 hours, CYP1A1 expression by qPCR; read-out: Assay 3: Hum CYP1A1 Antagonism IC50. On the procedure:
In Vitro Assay 3: AHR-Regulated CYP1A1 Expression in Human Cell Line
To assess the AHR inhibitory activity of the substances described in this application, the ability thereof to antagonise ligand-induced AHR gene regulation in a dose-dependent manner was quantified. For this purpose, quantitative PCR analysis was used to determine expression of the AHR-regulated gene CYP1A1 in a human monocytic U937 cell line upon stimulation with 200 uM KA in the presence and absence of AHR inhibitor. […] CYP1A1 expression was induced with 200 uM KA (positive control) in the presence or absence of the substances for 6 hours. Human U937 cells were typically incubated with eight different concentrations of the substances (1 nM, 3 nM, 10 nM, 30 nM, 100 nM, 300 nM, 1 uM and 3 uM) and analyzed in duplicate on the same microtitre plate. […] Unstimulated cells were used as the negative control. Taqman probes for human CYP1A1 (Hs01054797_g1) and human HPRT (Hs02800695_m1) were used to analyze fold expression of CYP1A1 of HPRT. Quantitation was performed on a Taqman SDS7900HT.

Assay [2] concerns the target T1, AHR. Nature of the assay: In vitro assay 1: antagonism in human cell line (transactivation assay, U87 cells prestimulated with kynurenic acid, DRE firefly luciferase reporter). Further details: host or cells: U87 glioblastoma cells, stably transfected with DRE firefly luciferase and renilla reporter constructs. The following applies: 150 uM kynurenic acid, 20 hours, read-out: Assay 1: AHR-luc Hum Antagonism IC50. The gist of the method: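 Antagonism measured after kynurenic acid prestimulation in U87 cells that express AHR endogenously and stably harbor a firefly luciferase gene under DRE control plus a constitutive renilla construct. Positive and negative controls served for normalization.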

The target of assay [3] is T1, AHR. Nature of the assay: In vitro assay 2: agonism in human cell line (transactivation assay, U87 cells, DRE firefly luciferase reporter). The following applies: no kynurenic acid, 20 hours, read-out: Assay 2: AHR-luc Hum Agonism IC50. Also noted: host or cells: U87 glioblastoma cells, stably transfected with DRE firefly luciferase and renilla reporter constructs. The gist of the method: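 Agonist readout: DRE firefly luciferase, with constitutive renilla reporter, in stably transfected U87 cells expressing AHR endogenously. Normalization used positive control (300 uM kynurenic acid) and negative control.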

Each structure is given as a SMILES string. pIC50: −log10 of the molar value.

As to `Cn1cc(-n2nc(-c3ccc(Cl)cc3)cc(C(=O)NCC(O)C(F)(F)F)c2=O)cn1` (single isomer, unassigned; (+)) [Example 20, (+)-6-(4-Chlorophenyl)-2-(1-methyl-1H-pyrazol-4-yl)-3-oxo-N-(3,3,3-trifluoro-2-hydroxypropyl)-2,3-dihydropyridazine-4-carboxamide], the pIC50 on AHR [1] is 7.20; on AHR [2] it was 7.57; on AHR [3] it was below 4.70.
On to `Cc1ccc(-c2cc(C(=O)NC(CO)C(C)C)c(=O)n(-c3cnn(C)c3)n2)cc1` (stereo not drawn) [Example 1, N-(1-Hydroxy-3-methylbutan-2-yl)-6-(4-methylphenyl)-2-(1-methyl-1H-pyrazol-4-yl)-3-oxo-2,3-dihydropyridazine-4-carboxamide], for which the pIC50 at AHR [1] is 8.37; at AHR [2] it was 8.13; at AHR [3], below 4.70.
For the compound `O=C(N[C@H](CO)C(F)(F)F)c1cc(-c2ccc(OC(F)(F)F)cc2)nn(-c2cccnc2)c1=O` [Example 134, 3-Oxo-2-(pyridin-3-yl)-N-[(2R)-1,1,1-trifluoro-3-hydroxypropan-2-yl]-6-[4-(trifluoromethoxy)phenyl]-2,3-dihydropyridazine-4-carboxamide], the values for the pIC50 on AHR [1], at AHR [2] and at AHR [3] were 8.00, 8.11 and below 4.70, respectively.
With `C[C@@H](CO)NC(=O)c1cc(-c2ccc(OC(F)F)cc2)nn(-c2cnn(C)c2)c1=O` [Example 308, 6-[4-(Difluoromethoxy)phenyl]-N-[(2S)-1-hydroxypropan-2-yl]-2-(1-methyl-1H-pyrazol-4-yl)-3-oxo-2,3-dihydropyridazine-4-carboxamide], the results for the negative logarithm of the IC50 (pIC50) on AHR [1], on AHR [2] and on AHR [3] were 7.47, 7.66 and below 4.70, respectively.
For `O=C(N[C@H](CO)C1CC1)c1cc(-c2ccc(C(F)(F)F)cc2)nn(-c2cccnc2)c1=O` [Example 94, N-[(1S)-1-Cyclopropyl-2-hydroxyethyl]-3-oxo-2-(pyridin-3-yl)-6-[4-(trifluoromethyl)phenyl]-2,3-dihydropyridazine-4-carboxamide], the pIC50 at AHR [1] is 7.78; on AHR [2], 8.07; on AHR [3] it was below 4.70.
In the same order, the values of `Cc1ccc(-c2cc(C(=O)NCC(O)C(F)F)c(=O)n(-c3cnn(C)c3)n2)cc1` (single isomer, unassigned; enantiomer 1) [Example 14, N-(3,3-Difluoro-2-hydroxypropyl)-6-(4-methylphenyl)-2-(1-methyl-1H-pyrazol-4-yl)-3-oxo-2,3-dihydropyridazine-4-carboxamide, Enantiomer 1] are 7.59, 7.92 and below 4.70.
Regarding `Cc1ccc(-c2cc(C(=O)NCC(O)C(F)(F)F)c(=O)n(-c3cnn(C)c3)n2)cc1` (single isomer, unassigned; enantiomer 1) [Example 11, (−)-6-(4-Methylphenyl)-2-(1-methyl-1H-pyrazol-4-yl)-3-oxo-N-(3,3,3-trifluoro-2-hydroxypropyl)-2,3-dihydropyridazine-4-carboxamide, Enantiomer 1], the pIC50 on AHR [1] was 9.82; on AHR [2] it was 8.34; on AHR [3], below 4.70.
On to `O=C(N[C@H](CO)C(F)(F)F)c1cc(-c2ccc(C(F)(F)F)cc2)nn(-c2cccnc2)c1=O` [Example 112, 3-Oxo-2-(pyridin-3-yl)-N-[(2R)-1,1,1-trifluoro-3-hydroxypropan-2-yl]-6-[4-(trifluoromethyl)phenyl]-2,3-dihydropyridazine-4-carboxamide], for which the figures for the pIC50 on AHR [1], on AHR [2] and at AHR [3] were 9.04, 8.94 and below 4.70, respectively.
In the same order, the values of `O=C(NC(CO)C1CC1)c1cc(-c2ccc(Cl)cc2)nn(-c2cccnc2)c1=O` (single isomer, unassigned; (-)) [Example 92, (−)-6-(4-Chlorophenyl)-N-(1-cyclopropyl-2-hydroxyethyl)-3-oxo-2-(pyridin-3-yl)-2,3-dihydropyridazine-4-carboxamide] are 8.56, 7.72 and below 4.70.
On to `CC(C)(O)CNC(=O)c1cc(-c2ccc(Cl)cc2)nn(-c2cncc(F)c2)c1=O` [Example 82, 6-(4-Chlorophenyl)-2-(5-fluoropyridin-3-yl)-N-(2-hydroxy-2-methylpropyl)-3-oxo-2,3-dihydropyridazine-4-carboxamide], for which the pIC50 at AHR [1] was 7.46; at AHR [2] it was 7.42; at AHR [3], below 4.70.
Turning to `O=C(N[C@H]1COC[C@@H]1O)c1cc(-c2ccc(OC(F)(F)F)cc2)nn(-c2cccnc2)c1=O` (single isomer, unassigned; enantiomer 2) [Example 162, N-[(trans)-4-Hydroxytetrahydrofuran-3-yl]-3-oxo-2-(pyridin-3-yl)-6-[4-(trifluoromethoxy)phenyl]-2,3-dihydropyridazine-4-carboxamide, Enantiomer 2], the pIC50 was 7.43 at AHR [1], 7.56 at AHR [2] and below 4.70 at AHR [3].
As to `O=C(N[C@H]1COCC[C@H]1O)c1cc(-c2ccc(OC(F)(F)F)cc2)nn(-c2cccnc2)c1=O` [Example 176, 1,5-Anhydro-2,4-dideoxy-2-[({3-oxo-2-(pyridin-3-yl)-6-[4-(trifluoromethoxy)phenyl]-2,3-dihydropyridazin-4-yl}carbonyl)amino]-D-erythro-pentitol], the pIC50 was 7.41 at AHR [1], 7.18 at AHR [2] and below 4.70 at AHR [3].
Regarding `O=C(NCC(O)C(F)F)c1cc(-c2ccc(C(F)(F)F)cc2)nn(-c2cccnc2)c1=O` (single isomer, unassigned; (-)) [Example 230, (−)-N-(3,3-Difluoro-2-hydroxypropyl)-3-oxo-2-(pyridin-3-yl)-6-[4-(trifluoromethyl)phenyl]-2,3-dihydropyridazine-4-carboxamide], the pIC50 at AHR [1] was 7.98; on AHR [2] it was 8.12; at AHR [3], below 4.70.
On to `O=C(NC[C@H](O)C(F)(F)F)c1cc(-c2ccc(Cl)cc2)nn(-c2cncnc2)c1=O` [Example 237, 6-(4-Chlorophenyl)-3-oxo-2-(pyrimidin-5-yl)-N-[(2S)-3,3,3-trifluoro-2-hydroxypropyl]-2,3-dihydropyridazine-4-carboxamide], for which the pIC50 at AHR [1] was 8.10; at AHR [2], 8.03; on AHR [3], below 4.70.
Consider `O=C(NCC(O)C(F)(F)F)c1cc(-c2ccc(Cl)cc2)nn(-c2cccnc2)c1=O` (single isomer, unassigned; (-)) [Example 89, (−)-6-(4-Chlorophenyl)-3-oxo-2-(pyridin-3-yl)-N-(3,3,3-trifluoro-2-hydroxypropyl)-2,3-dihydropyridazine-4-carboxamide], for which the figures for the pIC50 on AHR [1], at AHR [2] and at AHR [3] were 8.58, 8.32 and below 4.70, respectively.
In the same order, the values of `Cn1cc(-n2nc(-c3ccc(Cl)cc3)cc(C(=O)N[C@H]3COCC[C@H]3O)c2=O)cn1` [Example 61, 1,5-Anhydro-2-({[6-(4-chlorophenyl)-2-(1-methyl-1H-pyrazol-4-yl)-3-oxo-2,3-dihydropyridazin-4-yl]carbonyl}amino)-2,4-dideoxy-D-erythro-pentitol] are 7.41, 7.55 and below 4.70.
